Results on 13 compounds are retold here after US20160122386A1, “V1A RECEPTOR AGONISTS” (FERRING B.V., priority 2014, published 2016).

Starred links: 1 amine or outer side, 2 acyl side, 3 side chain; linkers in the order of their positions; H or OH if unused. Positions of bridges follow the written chain, without caps; N, C: chain ends. Non-standard residues stand in square brackets, D forms with d. Residues, ends and D or L forms follow the SMILES beside them. Chains are numbered I, II in the order given. *: point of attachment. d(isoGln) = NC(=O)[C@@H](CCC(=O)[*:2])N[*:1]; dPhe(4-Cl) = N[C@H](Cc1ccc(Cl)cc1)C(=O)O; isoGln = NC(=O)[C@H](CCC(=O)[*:2])N[*:1]; d(εLys) = N[C@H](CCCCN[*:1])C(=O)[*:2]; X1 = N[C@@H](CCC(=O)[*:2])C(=O)[*:1]; εLys = N[C@@H](CCCCN[*:1])C(=O)[*:2]; X4 = N[C@H](CCC(=O)[*:2])C(=O)[*:1]; Aad = N[C@@H](CCCC(=O)O)C(=O)O; Orn = NCCC[C@H](N)C(=O)O; Dab = NCC[C@H](N)C(=O)O; PhAc = O=C(Cc1ccccc1)*

The assay concerns the target T1, human V1aR (Homo sapiens, UniProt P37288).
T1 construct: expressed in transfected cells
The assay is described as follows: Agonist activity at vasopressin V1a receptors, cell-based FLIPR calcium assay. Particulars: for Emax: read-out: Efficacy Avg. (%). The essentials:
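HEK Flp-In cells stably expressing human V1aR were loaded with Calcium 4 dye plus 2.5 mM probenecid for 1 h at 37 °C, then given half-log compound concentrations (final 0.1% DMSO) on FLIPR Tetra.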

T1 sequence (P37288 whole entry): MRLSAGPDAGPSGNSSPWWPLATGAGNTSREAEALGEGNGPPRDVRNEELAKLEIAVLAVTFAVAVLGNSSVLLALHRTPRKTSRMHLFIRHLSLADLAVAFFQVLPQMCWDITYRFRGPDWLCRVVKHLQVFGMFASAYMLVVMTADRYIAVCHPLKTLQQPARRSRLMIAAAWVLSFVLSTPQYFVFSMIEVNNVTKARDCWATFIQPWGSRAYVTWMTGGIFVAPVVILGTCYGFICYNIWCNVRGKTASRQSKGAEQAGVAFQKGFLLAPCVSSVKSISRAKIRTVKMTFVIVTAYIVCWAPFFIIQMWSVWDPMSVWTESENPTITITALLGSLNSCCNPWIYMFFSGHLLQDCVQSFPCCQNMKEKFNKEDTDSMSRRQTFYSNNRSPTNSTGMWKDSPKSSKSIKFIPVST

For the compound `CC[C@H](C)[C@@H]1NC(=O)[C@H](Cc2ccccc2)NC(=O)[C@@H](N)CSSC[C@@H](C(=O)N2CCC[C@H]2C(=O)N[C@@H](CCCNC(=O)[C@@H](N)CCCCNC(=O)CC[C@H](NC(=O)[C@H](CCCNC(=N)N)NC(=O)[C@@H]2CCCN2C(=O)[C@H](C)NC(=O)[C@H](CC(N)=O)NC(=O)[C@H](CCC(N)=O)NC(=O)[C@H](Cc2ccccc2)NC(=O)[C@@H](Cc2ccc(OC)cc2)NC(=O)Cc2ccccc2)C(N)=O)C(=O)NCC(N)=O)NC(=O)[C@H](CC(N)=O)NC(=O)[C@H](CCC(N)=O)NC1=O` [Compound 28] (I: H-CFIQNCP[Orn]G-NH2 / II: PhAc-[dY](Me)FQNAPR[isoGln][εLys]; disulfide I:1-I:6; amide I:8-II:C), the concentration giving a half-maximal response (EC50) was found to be 1.2 nM and the Emax amounted to 44%.
Take `CC[C@H](C)[C@@H]1NC(=O)[C@H](Cc2ccccc2)NC(=O)[C@@H](N)CSSC[C@@H](C(=O)N2CCC[C@H]2C(=O)N[C@@H](CCCNCCCCCNC(=O)CC[C@H](NC(=O)[C@H](CCCNC(=N)N)NC(=O)[C@@H]2CCCN2C(=O)[C@H](CO)NC(=O)[C@H](CC(N)=O)NC(=O)[C@H](CCC(N)=O)NC(=O)[C@H](Cc2ccccc2)NC(=O)[C@@H](Cc2ccc(OC)cc2)NC(=O)Cc2ccccc2)C(N)=O)C(=O)NCC(N)=O)NC(=O)[C@H](CC(N)=O)NC(=O)[C@H](CCC(N)=O)NC1=O` [Compound 11]: the EC50 worked out at 2.2 nM and the Emax turned out to be 51%.
For `CC[C@H](C)[C@@H]1NC(=O)[C@H](Cc2ccccc2)NC(=O)[C@@H](N)CSSC[C@@H](C(=O)N2CCC[C@H]2C(=O)N[C@@H](CCCNC(=O)[C@@H](N)CCCCNC(=O)CC[C@H](NC(=O)[C@H](CCCNC(=N)N)NC(=O)[C@@H]2CCCN2C(=O)[C@H](CCCNC(=N)N)NC(=O)[C@H](CC(N)=O)NC(=O)[C@H](CCC(N)=O)NC(=O)[C@H](Cc2ccccc2)NC(=O)[C@@H](Cc2ccc(Cl)cc2)NC(=O)Cc2ccccc2)C(N)=O)C(=O)NCC(N)=O)NC(=O)[C@H](CC(N)=O)NC(=O)[C@H](CCC(N)=O)NC1=O` [Compound 25] (I: H-CFIQNCP[Orn]G-NH2 / II: PhAc-[dPhe(4-Cl)]FQNRPR[isoGln][εLys]; disulfide I:1-I:6; amide I:8-II:C) the same measures were 1.4 nM and 49%.
On to `CC[C@H](C)[C@@H]1NC(=O)[C@H](Cc2ccccc2)NC(=O)[C@@H](N)CSSC[C@@H](C(=O)N2CCC[C@H]2C(=O)N[C@@H](CCNC(=O)[C@H](N)CCCCNC(=O)CC[C@H](NC(=O)[C@H](CCCNC(=N)N)NC(=O)[C@@H]2CCCN2C(=O)[C@H](CCC(N)=O)NC(=O)[C@H](CC(N)=O)NC(=O)[C@H](CCC(N)=O)NC(=O)[C@H](Cc2ccccc2)NC(=O)[C@@H](Cc2ccc(OC)cc2)NC(=O)Cc2ccccc2)C(N)=O)C(=O)NCC(N)=O)NC(=O)[C@H](CC(N)=O)NC(=O)[C@H](CCCC(N)=O)NC1=O` [Compound 61] (I: H-CFI[Aad](NH2)NCP[Dab]G-NH2 / II: PhAc-[dY](Me)FQNQPR[isoGln][d(εLys)]; disulfide I:1-I:6; amide I:8-II:C), for which the EC50 is 2.5 nM and the Emax turned out to be 38%.
With `CC[C@H](C)[C@@H]1NC(=O)[C@H](Cc2ccccc2)NC(=O)[C@@H](N)CSSC[C@@H](C(=O)N2CCC[C@H]2C(=O)N[C@@H](CCNC(=O)[C@@H](N)CCC(=O)NCCCC[C@H](NC(=O)[C@H](CCCNC(=N)N)NC(=O)[C@@H]2CCCN2C(=O)[C@H](C)NC(=O)[C@H](CC(N)=O)NC(=O)[C@H](CCC(N)=O)NC(=O)[C@H](Cc2ccccc2)NC(=O)[C@@H](Cc2ccc(OC)cc2)NC(=O)Cc2ccccc2)C(N)=O)C(=O)NCC(N)=O)NC(=O)[C@H](CC(N)=O)NC(=O)[C@H](CCC(N)=O)NC1=O` [Compound 38] (I: H-CFIQNCP[Dab]G-NH2 / II: PhAc-[dY](Me)FQNAPRK-NH2; disulfide I:1-I:6; linker I:8-II:8 via X1), the concentration giving a half-maximal response (EC50) turned out to be 1.4 nM and the Emax was determined as 46%.
Take `CC[C@H](C)[C@@H]1NC(=O)[C@H](Cc2ccccc2)NC(=O)[C@@H](N)CSSC[C@@H](C(=O)N2CCC[C@H]2C(=O)N[C@@H](CCCNCCCCCC(=O)NCCCC[C@H](NC(=O)[C@H](CCCNC(=N)N)NC(=O)[C@@H]2CCCN2C(=O)[C@H](C)NC(=O)[C@H](CC(N)=O)NC(=O)[C@H](CCC(N)=O)NC(=O)[C@H](Cc2ccccc2)NC(=O)[C@@H](Cc2ccc(OC)cc2)NC(=O)Cc2ccccc2)C(N)=O)C(=O)NCC(N)=O)NC(=O)[C@H](CC(N)=O)NC(=O)[C@H](CCC(N)=O)NC1=O` [Compound 8]: the EC50 was over 10000 nM and the Emax was 50%.
Turning to `CC[C@H](C)[C@@H]1NC(=O)[C@H](Cc2ccccc2)NC(=O)[C@@H](N)CSSC[C@@H](C(=O)N2CCC[C@H]2C(=O)N[C@@H](CCNC(=O)[C@H](N)CCCCNC(=O)CC[C@H](NC(=O)[C@H](CCCNC(=N)N)NC(=O)[C@@H]2CCCN2C(=O)[C@H](C)NC(=O)[C@H](CC(N)=O)NC(=O)[C@H](CCC(N)=O)NC(=O)[C@H](Cc2ccccc2)NC(=O)[C@@H](Cc2ccc(OC)cc2)NC(=O)Cc2ccccc2)C(N)=O)C(=O)NCC(N)=O)NC(=O)[C@H](CC(N)=O)NC(=O)[C@H](CC(N)=O)NC1=O` [Compound 60] (I: H-CFINNCP[Dab]G-NH2 / II: PhAc-[dY](Me)FQNAPR[isoGln][d(εLys)]; disulfide I:1-I:6; amide I:8-II:C), the EC50 is 2.3 nM and the Emax turned out to be 42%.
Regarding `CC[C@H](C)[C@@H]1NC(=O)[C@H](Cc2ccccc2)NC(=O)[C@@H](N)CSSC[C@@H](C(=O)N2CCC[C@H]2C(=O)N[C@@H](CCNC(=O)[C@H](N)CCCCNC(=O)CC[C@H](NC(=O)[C@H](CCCNC(=N)N)NC(=O)[C@@H]2CCCN2C(=O)[C@H](CCN)NC(=O)[C@H](CC(N)=O)NC(=O)[C@H](CCC(N)=O)NC(=O)[C@H](Cc2ccccc2)NC(=O)[C@@H](Cc2ccc(OC)cc2)NC(=O)Cc2ccccc2)C(N)=O)C(=O)NCC(N)=O)NC(=O)[C@H](CC(N)=O)NC(=O)[C@H](CC(N)=O)NC1=O` [Compound 59] (I: H-CFINNCP[Dab]G-NH2 / II: PhAc-[dY](Me)FQN[Dab]PR[isoGln][d(εLys)]; disulfide I:1-I:6; amide I:8-II:C), the Emax amounted to 26%.
With `CC[C@H](C)[C@@H]1NC(=O)[C@H](Cc2ccccc2)NC(=O)[C@@H](O)CSSC[C@@H](C(=O)N2CCC[C@H]2C(=O)N[C@@H](CCNC(=O)[C@@H](N)CCCCNC(=O)CC[C@H](NC(=O)[C@H](CCCNC(=N)N)NC(=O)[C@@H]2CCCN2C(=O)[C@H](CCCNC(=N)N)NC(=O)[C@H](CC(N)=O)NC(=O)[C@H](CCC(N)=O)NC(=O)[C@H](Cc2ccccc2)NC(=O)[C@@H](Cc2ccc(OC)cc2)NC(=O)Cc2ccccc2)C(N)=O)C(=O)NCC(N)=O)NC(=O)[C@H](CC(N)=O)NC(=O)[C@H](CCC(N)=O)NC1=O` [Compound 31], the concentration for a half-maximal effect (EC50) turned out to be 0.83 nM and the Emax was 63%.
On the same counts, the results for `CC[C@H](C)[C@@H]1NC(=O)[C@H](Cc2ccccc2)NC(=O)[C@@H](N)CSSC[C@@H](C(=O)N2CCC[C@H]2C(=O)N[C@@H](CCNC(=O)[C@@H](N)CCCCNC(=O)CC[C@@H](NC(=O)[C@H](CCCNC(=N)N)NC(=O)[C@@H]2CCCN2C(=O)[C@H](C)NC(=O)[C@H](CC(N)=O)NC(=O)[C@H](CCC(N)=O)NC(=O)[C@H](Cc2ccccc2)NC(=O)[C@@H](Cc2ccc(OC)cc2)NC(=O)Cc2ccccc2)C(N)=O)C(=O)NCC(N)=O)NC(=O)[C@H](CC(N)=O)NC(=O)[C@H](CCC(N)=O)NC1=O` [Compound 54] (I: H-CFIQNCP[Dab]G-NH2 / II: PhAc-[dY](Me)FQNAPR[d(isoGln)][εLys]; disulfide I:1-I:6; amide I:8-II:C) are 1.4 nM and 51%.
Take `CC[C@H](C)[C@@H]1NC(=O)[C@H](Cc2ccccc2)NC(=O)[C@@H](N)CSSC[C@@H](C(=O)N2CCC[C@H]2C(=O)N[C@@H](CCCNCCCCCNC(=O)CC[C@H](NC(=O)[C@H](CCCNC(=N)N)NC(=O)[C@@H]2CCCN2C(=O)[C@H](CCCNC(N)=O)NC(=O)[C@H](CC(N)=O)NC(=O)[C@H](CCC(N)=O)NC(=O)[C@H](CC(C)(C)C)NC(=O)[C@@H](Cc2ccc(OC)cc2)NC(=O)Cc2ccccc2)C(N)=O)C(=O)NCC(N)=O)NC(=O)[C@H](CC(N)=O)NC(=O)[C@H](CCC(N)=O)NC1=O` [Compound 46]: the concentration giving a half-maximal response (EC50) was determined as 1.4 nM and the Emax was 62%.
Take `CC[C@H](C)[C@@H]1NC(=O)[C@H](Cc2ccccc2)NC(=O)[C@@H](N)CSSC[C@@H](C(=O)N2CCC[C@H]2C(=O)N[C@@H](CCNC(=O)[C@H](N)CCC(=O)NCCCC[C@H](NC(=O)[C@H](CCCNC(=N)N)NC(=O)[C@@H]2CCCN2C(=O)[C@H](C)NC(=O)[C@H](CC(N)=O)NC(=O)[C@H](CCC(N)=O)NC(=O)[C@H](Cc2ccccc2)NC(=O)[C@@H](Cc2ccc(OC)cc2)NC(=O)Cc2ccccc2)C(N)=O)C(=O)NCC(N)=O)NC(=O)[C@H](CC(N)=O)NC(=O)[C@H](CC(N)=O)NC1=O` [Compound 66] (I: H-CFINNCP[Dab]G-NH2 / II: PhAc-[dY](Me)FQNAPRK-NH2; disulfide I:1-I:6; linker I:8-II:8 via X4): the half-maximal effective concentration (EC50) was determined as 2.3 nM and the Emax stood at 30%.
Turning to `CC[C@H](C)[C@@H]1NC(=O)[C@H](Cc2ccccc2)NC(=O)[C@@H](N)CSSC[C@@H](C(=O)N2CCC[C@H]2C(=O)N[C@@H](CCCNCCCCCNC(=O)CCNC(=O)CC[C@H](NC(=O)[C@H](CCCNC(=N)N)NC(=O)[C@@H]2CCCN2C(=O)[C@H](C)NC(=O)[C@H](CC(N)=O)NC(=O)[C@H](CCC(N)=O)NC(=O)[C@H](Cc2ccccc2)NC(=O)[C@@H](Cc2ccc(OC)cc2)NC(=O)Cc2ccccc2)C(N)=O)C(=O)NCC(N)=O)NC(=O)[C@H](CC(N)=O)NC(=O)[C@H](CCC(N)=O)NC1=O` [Compound 20], the concentration giving a half-maximal response (EC50) came to 2.7 nM and the Emax was found to be 42%.

A word on the EC50: it is the concentration needed to bring the measured effect to its halfway point.
